pIC50: −log10 of the molar value. Where “and” joins values, the source holds several entries; their conditions need not be identical. Equal values may be shown once.
Test system: 855422-203-R-J1-PDC complex spheroid growth
Test: Anticancer human tumor 855422-203-R-J1-PDC patient-derived bladder carcinoma cell line growth inhibition [AhR]
Conditions: for viability, T/C: stronger effect = lower value
Outline: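 Spheroids combined tumor cells with HUVEC endothelial cells and human MSCs as stroma. AhR antagonists were paired with standard or investigational drugs, each dosed in half-log steps down from near clinical Cmax, or from 10 microM where Cmax was unknown.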

[1] = curve of first compound, second compound 0.1 µM
[2] = curve of first compound, second compound 0.316 µM
[3] = curve of first compound, second compound 1 µM
[4] = curve of first compound, second compound 3.16 µM
[5] = curve of first compound, second compound 10 µM
[6] = second compound 0.1 µM, first compound 0.0316 µM
[7] = second compound 0.1 µM, first compound 0.1 µM
[8] = second compound 0.1 µM, first compound 0.316 µM
[9] = second compound 0.1 µM, first compound 1 µM
[10] = second compound 0.316 µM, first compound 0.0316 µM
[11] = second compound 0.316 µM, first compound 0.1 µM
[12] = second compound 0.316 µM, first compound 0.316 µM
[13] = second compound 0.316 µM, first compound 1 µM
[14] = second compound 1 µM, first compound 0.0316 µM
[15] = second compound 1 µM, first compound 0.1 µM
[16] = second compound 1 µM, first compound 0.316 µM
[17] = second compound 1 µM, first compound 1 µM
[18] = second compound 3.16 µM, first compound 0.0316 µM
[19] = second compound 3.16 µM, first compound 0.1 µM
[20] = second compound 3.16 µM, first compound 0.316 µM
[21] = second compound 3.16 µM, first compound 1 µM
[22] = second compound 10 µM, first compound 0.0316 µM
[23] = second compound 10 µM, first compound 0.1 µM
[24] = second compound 10 µM, first compound 0.316 µM
[25] = second compound 10 µM, first compound 1 µM
[26] = second compound 0.1 µM, first compound 0.000949 µM
[27] = second compound 0.1 µM, first compound 0.003 µM
[28] = second compound 0.1 µM, first compound 0.00949 µM
[29] = second compound 0.1 µM, first compound 0.03 µM
[30] = second compound 0.1 µM, first compound 0.0949 µM
[31] = second compound 0.1 µM, first compound 0.3 µM
[32] = second compound 0.316 µM, first compound 0.000949 µM
[33] = second compound 0.316 µM, first compound 0.003 µM
[34] = second compound 0.316 µM, first compound 0.00949 µM
[35] = second compound 0.316 µM, first compound 0.03 µM
[36] = second compound 0.316 µM, first compound 0.0949 µM
[37] = second compound 0.316 µM, first compound 0.3 µM
[38] = second compound 1 µM, first compound 0.000949 µM
[39] = second compound 1 µM, first compound 0.003 µM
[40] = second compound 1 µM, first compound 0.00949 µM
[41] = second compound 1 µM, first compound 0.03 µM
[42] = second compound 1 µM, first compound 0.0949 µM
[43] = second compound 1 µM, first compound 0.3 µM
[44] = second compound 3.16 µM, first compound 0.000949 µM
[45] = second compound 3.16 µM, first compound 0.003 µM
[46] = second compound 3.16 µM, first compound 0.00949 µM
[47] = second compound 3.16 µM, first compound 0.03 µM
[48] = second compound 3.16 µM, first compound 0.0949 µM
[49] = second compound 3.16 µM, first compound 0.3 µM
[50] = second compound 10 µM, first compound 0.000949 µM
[51] = second compound 10 µM, first compound 0.003 µM
[52] = second compound 10 µM, first compound 0.00949 µM
[53] = second compound 10 µM, first compound 0.03 µM
[54] = second compound 10 µM, first compound 0.0949 µM
[55] = second compound 10 µM, first compound 0.3 µM
[56] = second compound 0.1 µM, first compound 0.00316 µM
[57] = second compound 0.1 µM, first compound 0.01 µM
[58] = second compound 0.316 µM, first compound 0.00316 µM
[59] = second compound 0.316 µM, first compound 0.01 µM
[60] = second compound 1 µM, first compound 0.00316 µM
[61] = second compound 1 µM, first compound 0.01 µM
[62] = second compound 3.16 µM, first compound 0.00316 µM
[63] = second compound 3.16 µM, first compound 0.01 µM
[64] = second compound 10 µM, first compound 0.00316 µM
[65] = second compound 10 µM, first compound 0.01 µM
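Further: spheroids exposed to agents for seven days before readout.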
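Wherever viability, T/C is given: percent of DMSO vehicle control luminescence viability.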

COc1cc(Nc2ncc3c(n2)-c2ccc(Cl)cc2C(c2c(F)cccc2OC)=NC3)ccc1C(=O)O + Cc1cncc(-c2nc(NCCc3c[nH]c4ccccc34)c3ncn(C(C)C)c3n2)c1
pIC50 [1]: < 5.00 | pIC50 [2]: < 5.00 | pIC50 [3]: 6.01 | pIC50 [4]: 6.00 | pIC50 [5]: > 7.50 | viability, T/C [6]: 104% | viability, T/C [7]: 101% | viability, T/C [8]: 61.5% | viability, T/C [9]: 55% | viability, T/C (second compound 0.1 µM, first compound 3.16 µM): 50.6% | viability, T/C (second compound 0.1 µM, first compound 10 µM): 45.4% | viability, T/C [10]: 98.7% | viability, T/C [11]: 94.8% | viability, T/C [12]: 61.4% | viability, T/C [13]: 52.4% | viability, T/C (second compound 0.316 µM, first compound 3.16 µM): 52.5% | viability, T/C (second compound 0.316 µM, first compound 10 µM): 50.7% | viability, T/C [14]: 99% | viability, T/C [15]: 90.5% | viability, T/C [16]: 63.2% | viability, T/C [17]: 49.3% | viability, T/C (second compound 1 µM, first compound 3.16 µM): 48.6% | viability, T/C (second compound 1 µM, first compound 10 µM): 48.2% | viability, T/C [18]: 82.8% | viability, T/C [19]: 75.9% | viability, T/C [20]: 59.7% | viability, T/C [21]: 48.6% | viability, T/C (second compound 3.16 µM, first compound 3.16 µM): 52.2% | viability, T/C (second compound 3.16 µM, first compound 10 µM): 44.8% | viability, T/C [22]: 27.9% | viability, T/C [23]: 26.7% | viability, T/C [24]: 14.8% | viability, T/C [25]: 11.4% | viability, T/C (second compound 10 µM, first compound 3.16 µM): 22.5% | viability, T/C (second compound 10 µM, first compound 10 µM): 26.4%

CC(C)CC(NC(=O)C(Cc1ccccc1)NC(=O)c1cnccn1)B(O)O (stereo unspecified)
viability, T/C (compound 0.000949 µM): 110% and 101% and 118% | viability, T/C (compound 0.00949 µM): 0.21% and 0.27% and 0.11% | viability, T/C (compound 0.03 µM): 0.16% and 0.14% and 0.42% | viability, T/C (compound 0.0949 µM): 0.15% and 0.14% and 0.12% | viability, T/C (compound 0.3 µM): 0.19% (2×) and 0.21% | pIC50 (curve of compound): 8.55 and 8.24 and 8.73

CC(C)CC(NC(=O)C(Cc1ccccc1)NC(=O)c1cnccn1)B(O)O (stereo unspecified) + Cc1cncc(-c2nc(NCCc3c[nH]c4ccccc34)c3ncn(C(C)C)c3n2)c1
pIC50 [1]: 8.67 | pIC50 [2]: 8.69 | pIC50 [3]: 8.77 | pIC50 [4]: 8.89 | pIC50 [5]: > 9.02 | viability, T/C [26]: 93% | viability, T/C [27]: 32.3% | viability, T/C [28]: 1.54% | viability, T/C [29]: 0.03% | viability, T/C [30]: 0.02% | viability, T/C [31]: 0.1% | viability, T/C [32]: 103% | viability, T/C [33]: 22.5% | viability, T/C [34]: 2.79% | viability, T/C [35]: 0.01% | viability, T/C [36]: 0.01% | viability, T/C [37]: 0.09% | viability, T/C [38]: 90.6% | viability, T/C [39]: 9.23% | viability, T/C [40]: 1.41% | viability, T/C [41]: 0.02% | viability, T/C [42]: 0.03% | viability, T/C [43]: 1.34% | viability, T/C [44]: 66.5% | viability, T/C [45]: 4.56% | viability, T/C [46]: 0.97% | viability, T/C [47]: 2.11% | viability, T/C [48]: 0.02% | viability, T/C [49]: 0.68% | viability, T/C [50]: 4.11% | viability, T/C [51]: 0.69% | viability, T/C [52]: 0.08% | viability, T/C [53]: 1.49% | viability, T/C [54]: 0.1% | viability, T/C [55]: 0.73%

CC(C)CC(NC(=O)C(Cc1ccccc1)NC(=O)c1cnccn1)B(O)O (stereo unspecified) + Cc1ccccc1N=Nc1ccc(NC(=O)c2ccnn2C)c(C)c1
pIC50 [1]: 8.23 | pIC50 [2]: 8.23 | pIC50 [3]: 8.25 | pIC50 [4]: 8.28 | pIC50 [5]: 8.38 | viability, T/C [26]: 108% | viability, T/C [27]: 135% | viability, T/C [28]: 0.86% | viability, T/C [29]: 0.84% | viability, T/C [30]: 1.35% | viability, T/C [31]: 0.12% | viability, T/C [32]: 118% | viability, T/C [33]: 121% | viability, T/C [34]: 0.21% | viability, T/C [35]: 0.02% | viability, T/C [36]: 0.02% | viability, T/C [37]: 0.1% | viability, T/C [38]: 108% | viability, T/C [39]: 115% | viability, T/C [40]: 0.18% | viability, T/C [41]: 0.04% | viability, T/C [42]: 0.02% | viability, T/C [43]: 0.11% | viability, T/C [44]: 100% | viability, T/C [45]: 94.6% | viability, T/C [46]: 0.91% | viability, T/C [47]: 0.03% | viability, T/C [48]: 0.09% | viability, T/C [49]: 0.09% | viability, T/C [50]: 85% | viability, T/C [51]: 69.6% | viability, T/C [52]: 0.28% | viability, T/C [53]: 0.11% | viability, T/C [54]: 0.12% | viability, T/C [55]: 0.16%

CC1COCCN1c1cc(-c2ccnn2C)c2ccnc(-c3ccn[nH]3)c2n1 (stereo unspecified) + Cc1ccccc1N=Nc1ccc(NC(=O)c2ccnn2C)c(C)c1
pIC50 [1]: 6.28 | pIC50 [2]: 6.29 | pIC50 [3]: 6.29 | pIC50 [4]: 6.45 | pIC50 [5]: 6.53 | viability, T/C [56]: 104% | viability, T/C [57]: 99.4% | viability, T/C [6]: 97.7% | viability, T/C [7]: 98.4% | viability, T/C [8]: 67.6% | viability, T/C [9]: 27.8% | viability, T/C [58]: 101% | viability, T/C [59]: 107% | viability, T/C [10]: 97.5% | viability, T/C [11]: 101% | viability, T/C [12]: 68% | viability, T/C [13]: 24.1% | viability, T/C [60]: 100% | viability, T/C [61]: 106% | viability, T/C [14]: 91% | viability, T/C [15]: 97.8% | viability, T/C [16]: 66% | viability, T/C [17]: 26.9% | viability, T/C [62]: 88.6% | viability, T/C [63]: 86.7% | viability, T/C [18]: 87.3% | viability, T/C [19]: 92.6% | viability, T/C [20]: 52.7% | viability, T/C [21]: 23% | viability, T/C [64]: 77.1% | viability, T/C [65]: 83.5% | viability, T/C [22]: 76.4% | viability, T/C [23]: 73% | viability, T/C [24]: 48.7% | viability, T/C [25]: 20.9%

Cn1ncnc1C1c2n[nH]c(=O)c3cc(F)cc(c23)NC1c1ccc(F)cc1 (stereo unspecified) + Cc1ccccc1N=Nc1ccc(NC(=O)c2ccnn2C)c(C)c1
pIC50 [1]: < 7.00 | pIC50 [2]: < 7.00 | pIC50 [3]: < 7.00 | pIC50 [4]: < 7.00 | pIC50 [5]: < 7.00 | viability, T/C (second compound 0.1 µM, first compound 0.000316 µM): 102% | viability, T/C (second compound 0.1 µM, first compound 0.001 µM): 96% | viability, T/C [56]: 102% | viability, T/C [57]: 100% | viability, T/C [6]: 93.8% | viability, T/C [7]: 100% | viability, T/C (second compound 0.316 µM, first compound 0.000316 µM): 106% | viability, T/C (second compound 0.316 µM, first compound 0.001 µM): 96.4% | viability, T/C [58]: 95.7% | viability, T/C [59]: 96.1% | viability, T/C [10]: 92.6% | viability, T/C [11]: 90% | viability, T/C (second compound 1 µM, first compound 0.000316 µM): 104% | viability, T/C (second compound 1 µM, first compound 0.001 µM): 105% | viability, T/C [60]: 97.7% | viability, T/C [61]: 103% | viability, T/C [14]: 98.2% | viability, T/C [15]: 96.3% | viability, T/C (second compound 3.16 µM, first compound 0.000316 µM): 88.4% | viability, T/C (second compound 3.16 µM, first compound 0.001 µM): 97.3% | viability, T/C [62]: 93.9% | viability, T/C [63]: 90.8% | viability, T/C [18]: 87.4% | viability, T/C [19]: 91.8% | viability, T/C (second compound 10 µM, first compound 0.000316 µM): 80.1% | viability, T/C (second compound 10 µM, first compound 0.001 µM): 78.5% | viability, T/C [64]: 82.5% | viability, T/C [65]: 81.6% | viability, T/C [22]: 76.2% | viability, T/C [23]: 77%

Source: PubChem BioAssay AID1919005 (Molecular Pharmacology Branch, DTP, NCI, 2023)
